# Assay results as given in US20240409585A1, “MACROCYCLIC IMMUNOMODULATORS” (priority 2021, published 2024).
# Numbered stars: 1 amine (or outer) side, 2 acyl side, 3 side chain; on linkers, the order of the positions; unused ones are H or OH. Bridge positions count the residues as written; N and C are the ends. Square brackets hold non-standard residues; d marks the D form. Peptide text beside a SMILES is read from it. * marks the point of attachment. ξ: configuration not given here. Phe(4-COOH) = N[C@@H](Cc1ccc(C(=O)O)cc1)C(=O)O; Bip = N[C@@H](Cc1ccc(-c2ccccc2)cc1)C(=O)O; Phe(3-Me) = Cc1cccc(C[C@H](N)C(=O)O)c1; Phe(4-F) = N[C@@H](Cc1ccc(F)cc1)C(=O)O; Gly(cPent) = N[C@H](C(=O)O)C1CCCC1; Val(3-OH) = CC(C)(O)[C@H](N)C(=O)O; X49 = O=C(C(N[*:1])C1CCOCC1)[*:2]; hPhe = N[C@@H](CCc1ccccc1)C(=O)O; 4Pal = N[C@@H](Cc1ccncc1)C(=O)O; Cha = N[C@@H](CC1CCCCC1)C(=O)O; Cit = NC(=O)NCCC[C@H](N)C(=O)O; Ile(3ξ) = CCC(C)[C@H](N)C(=O)O; Thr(3ξ) = CC(O)[C@H](N)C(=O)O; Ala(CN) = N#CC[C@H](N)C(=O)O; Carboxymethyl = O=C(O)C*; NMeA = CN[C@@H](C)C(=O)O; Dab = NCC[C@H](N)C(=O)O; Dap = NC[C@H](N)C(=O)O; ξC = NC(CS)C(=O)O
# Target: T1, PE-labeled human PD-L1-Ig binding to Jurkat cell line over-expressing human PD-1 (Jurkat-PD-1) (Homo sapiens, UniProt Q15116)
# T1 construct: expressed in transfected cells; host or cells: Jurkat
# Experiment: Jurkat-PD-1 Cell Binding High-Content Screening Assay (CBA): Method 1
# Conditions: Jurkat-hPD-1 cells, PE-labeled PD-L1-Ig 20 nM final; read-out: Jurkat HPDL1 PD1 IC50 (uM) (Method 1)
# T1 sequence (Q15116 25-288): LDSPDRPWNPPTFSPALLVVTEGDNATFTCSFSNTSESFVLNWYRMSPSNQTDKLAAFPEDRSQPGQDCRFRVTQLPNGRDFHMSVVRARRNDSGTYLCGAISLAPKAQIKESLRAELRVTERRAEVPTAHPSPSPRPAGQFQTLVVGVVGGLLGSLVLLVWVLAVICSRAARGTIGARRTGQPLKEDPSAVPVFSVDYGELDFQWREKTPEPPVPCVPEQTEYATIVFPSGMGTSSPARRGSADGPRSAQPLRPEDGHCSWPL
row,Compound,IC50 [µM]
1,CCC(C)[C@@H]1NC(=O)[C@H](Cc2ccc(-c3ccccc3)cc2)NC(=O)[C@H](C(C)C)NC(=O)[C@H](Cc2c[nH]c3ccccc23)NC(=O)[C@H](CC(=O)O)NC(=O)[C@H](Cc2ccc(O)cc2)NC(=O)[C@H](CCN)NC(=O)CSC[C@@H](C(=O)NC(C(N)=O)C2CCOCC2)NC(=O)[C@H](C(C)O)NC(=O)[C@H](C(C)(C)O)NC(=O)[C@H](CC2CCCCC2)NC(=O)[C@H](CC(N)=O)NC(=O)[C@@H](CC(C)C)NC(=O)[C@H](C)N(C)C1=O (stereo partly drawn) [Compound 2175] ({CH2CO}-[Dab]YDWV[Bip][Ile(3ξ)][NMeA][dL]N[Cha][Val(3-OH)][Thr(3ξ)]C[X49]-NH2; thioether N-14),0.23
2,CC(C)C[C@@H]1NC(=O)[C@H](CCN)NC(=O)[C@@H](CC(C)C)NC(=O)[C@H](C)N(C)C(=O)[C@H](CCCNC(N)=O)NC(=O)[C@H](Cc2ccc(-c3ccccc3)cc2)NC(=O)[C@H](C(C)C)NC(=O)[C@H](Cc2c[nH]c3ccccc23)NC(=O)[C@H](CC(=O)O)NC(=O)[C@H](Cc2ccc(C(=O)O)cc2)NC(=O)[C@H](CN)NC(=O)CSC[C@@H](C(=O)N[C@@H](C)C(N)=O)NC(=O)[C@H]([C@@H](C)O)NC(=O)[C@H](C(C)C)NC1=O [Compound 1404] ({CH2CO}-[Dap][Phe(4-COOH)]DWV[Bip][Cit][NMeA][dL][Dab]LVTCA-NH2; thioether N-14),0.12
3,CC(C)C[C@@H]1NC(=O)[C@H](Cc2c[nH]c3ccccc23)NC(=O)[C@H](CC(=O)O)NC(=O)[C@H](Cc2ccc(OCC(=O)O)cc2)NC(=O)[C@H](Cc2ccccc2)NC(=O)CSC[C@@H](C(N)=O)NC(=O)[C@H](CO)NC(=O)[C@H](C(C)C)NC(=O)[C@H](CC(C)C)NC(=O)[C@H](CC(N)=O)NC(=O)[C@@H](CC(C)C)NC(=O)[C@H](C)N(C)C(=O)[C@H](CCC(=O)O)NC(=O)[C@H](Cc2ccc(-c3ccccc3)cc2)NC1=O [Compound 1628] ({CH2CO}-FY(Carboxymethyl)DWL[Bip]E[NMeA][dL]NLVSC-NH2; thioether N-14),0.09
4,Cc1cccc(C[C@@H]2NC(=O)[C@H](CC(=O)O)NC(=O)[C@H](Cc3ccc(C(=O)O)cc3)NC(=O)[C@H](Cc3ccc(F)cc3)NC(=O)CSC[C@@H](C(=O)N[C@@H](CCN)C(N)=O)NC(=O)[C@H](CCC(=O)O)NC(=O)[C@H](C(C)O)NC(=O)[C@H](CC3CCCCC3)NC(=O)[C@H](CCN)NC(=O)[C@@H](CC(C)C)NC(=O)[C@H](C)N(C)C(=O)[C@H](Cc3ccc(C(=O)O)cc3)NC(=O)[C@H](Cc3ccc(-c4ccccc4)cc3)NC(=O)[C@H](Cc3ccc(C(=O)O)cc3)NC2=O)c1 (stereo partly drawn) [Compound 2209] ({CH2CO}-[Phe(4-F)][Phe(4-COOH)]D[Phe(3-Me)][Phe(4-COOH)][Bip][Phe(4-COOH)][NMeA][dL][Dab][Cha][Thr(3ξ)]EC[Dab]-NH2; thioether N-14),0.01
5,CCC(C)[C@@H]1NC(=O)[C@H](Cc2ccc(-c3ccccc3)cc2)NC(=O)[C@H](CC(C)C)NC(=O)[C@H](Cc2c[nH]c3ccccc23)NC(=O)[C@H](CC(=O)O)NC(=O)[C@H](Cc2ccc(OCC(=O)O)cc2)NC(=O)[C@H](C(C)O)NC(=O)CSC[C@@H](C(=O)N[C@@H](CC(N)=O)C(=O)O)NC(=O)[C@H](C2CCCC2)NC(=O)[C@H](C(C)C)NC(=O)[C@H](CC(C)C)NC(=O)[C@H](CCN)NC(=O)[C@@H](CC(C)C)NC(=O)[C@H](C)N(C)C1=O (stereo partly drawn) [Compound 2227] ({CH2CO}-[Thr(3ξ)]Y(Carboxymethyl)DWL[Bip][Ile(3ξ)][NMeA][dL][Dab]LV[Gly(cPent)]CN-OH; thioether N-14),0.81
6,CC(C)C[C@@H]1NC(=O)[C@H](CCN)NC(=O)[C@@H](CC(C)C)NC(=O)[C@H](C)N(C)C(=O)[C@H](CCCNC(=N)N)NC(=O)[C@H](Cc2ccc(-c3ccccc3)cc2)NC(=O)[C@H](C(C)C)NC(=O)[C@H](Cc2c[nH]c3ccccc23)NC(=O)[C@H](CC(=O)O)NC(=O)[C@H](Cc2ccc(O)cc2)NC(=O)[C@H](CC(N)=O)NC(=O)CSC[C@@H](C(=O)NCC(N)=O)NC(=O)[C@H]([C@@H](C)O)NC(=O)[C@H](C(C)C)NC1=O [Compound 1249] ({CH2CO}-NYDWV[Bip]R[NMeA][dL][Dab]LVTCG-NH2; thioether N-14),0.06
7,Cc1cccc(C[C@@H]2NC(=O)[C@H](CC(=O)O)NC(=O)[C@H](Cc3ccncc3)NC(=O)[C@H](Cc3ccc(OCC(=O)O)cc3)NC(=O)CSC[C@@H](C(N)=O)NC(=O)[C@H](CO)NC(=O)[C@H](C(C)C)NC(=O)[C@H](CC(C)C)NC(=O)[C@H](CC(N)=O)NC(=O)[C@@H](CC(C)C)NC(=O)[C@H](C)N(C)C(=O)[C@H](CCCNC(N)=O)NC(=O)[C@H](Cc3ccc(-c4ccccc4)cc3)NC(=O)[C@H](CC(C)C)NC2=O)c1 [Compound 1642] ({CH2CO}-Y(Carboxymethyl)[4Pal]D[Phe(3-Me)]L[Bip][Cit][NMeA][dL]NLVSC-NH2; thioether N-14),0.18
8,CC(C)C[C@@H]1NC(=O)[C@H](Cc2c[nH]c3ccccc23)NC(=O)[C@H](CC(=O)O)NC(=O)[C@H](Cc2ccc(O)cc2)NC(=O)[C@H](Cc2ccccc2)NC(=O)CSC[C@@H](C(=O)NCC(N)=O)NC(=O)[C@H](CO)NC(=O)[C@H](C(C)C)NC(=O)[C@H](CC(C)C)NC(=O)[C@H](CC(=O)O)NC(=O)[C@H](CCCCN)NC(=O)[C@H](C)N(C)C(=O)[C@H](C(C)C)NC(=O)[C@H](Cc2ccc(-c3ccccc3)cc2)NC1=O [Compound 1826] ({CH2CO}-FYDWL[Bip]V[NMeA]KDLVSCG-NH2; thioether N-14),0.76
9,Cc1cccc(C[C@@H]2NC(=O)[C@H](CC(=O)O)NC(=O)[C@H](Cc3ccc(OCC(=O)O)cc3)NC(=O)[C@H](Cc3ccncc3)NC(=O)CSC[C@@H](C(=O)N[C@@H](CCN)C(N)=O)NC(=O)[C@H](CO)NC(=O)[C@H](C(C)(C)O)NC(=O)[C@H](CC3CCCCC3)NC(=O)[C@H](CCN)NC(=O)[C@@H](CC(C)C)NC(=O)[C@H](C)N(C)C(=O)[C@H](Cc3ccc(OCC(=O)O)cc3)NC(=O)[C@H](Cc3ccc(-c4ccccc4)cc3)NC(=O)[C@H](Cc3ccc(OCC(=O)O)cc3)NC2=O)c1 [Compound 2135] ({CH2CO}-[4Pal]Y(Carboxymethyl)D[Phe(3-Me)]Y(Carboxymethyl)[Bip]Y(Carboxymethyl)[NMeA][dL][Dab][Cha][Val(3-OH)]SC[Dab]-NH2; thioether N-14),0.01
10,CCC(C)[C@@H]1NC(=O)[C@H](Cc2ccc(-c3ccccc3)cc2)NC(=O)[C@H](CC(C)C)NC(=O)[C@H](Cc2c[nH]c3ccccc23)NC(=O)[C@H](CC(=O)O)NC(=O)[C@H](Cc2ccc(OCC(=O)O)cc2)NC(=O)[C@H](C(C)O)NC(=O)CSC[C@@H](C(=O)N[C@@H](CC(N)=O)C(=O)O)NC(=O)[C@H](CC(C)C)NC(=O)[C@H](C(C)C)NC(=O)[C@H](CC(C)C)NC(=O)[C@H](CCN)NC(=O)[C@@H](CC(C)C)NC(=O)[C@H](C)N(C)C1=O (stereo partly drawn) [Compound 2224] ({CH2CO}-[Thr(3ξ)]Y(Carboxymethyl)DWL[Bip][Ile(3ξ)][NMeA][dL][Dab]LVLCN-OH; thioether N-14),0.24
11,CCNC(=O)[C@H](CCN)NC(=O)[C@@H]1CSCC(=O)N[C@@H](CCc2ccccc2)C(=O)N[C@@H](Cc2ccc(OCC(=O)O)cc2)C(=O)N[C@@H](CC(=O)O)C(=O)N[C@@H](Cc2cccc(C)c2)C(=O)N[C@@H](Cc2ccc(OCC(=O)O)cc2)C(=O)N[C@@H](Cc2ccc(-c3ccccc3)cc2)C(=O)N[C@@H](Cc2ccc(OCC(=O)O)cc2)C(=O)N(C)[C@@H](C)C(=O)N[C@H](CC(C)C)C(=O)N[C@@H](CCN)C(=O)N[C@@H](CC2CCCCC2)C(=O)N[C@@H](C(C)C)C(=O)N[C@@H]([C@@H](C)O)C(=O)N1 [Compound 1855] ({CH2CO}-[hPhe]Y(Carboxymethyl)D[Phe(3-Me)]Y(Carboxymethyl)[Bip]Y(Carboxymethyl)[NMeA][dL][Dab][Cha]VTC[Dab]-NHEt; thioether N-14),0.01
12,CC(C)C[C@@H]1NC(=O)[C@H](CCCCN)NC(=O)[C@@H](CC(C)C)NC(=O)[C@H](C)N(C)C(=O)[C@H](Cc2cnc[nH]2)NC(=O)[C@H](Cc2ccc(-c3ccccc3)cc2)NC(=O)[C@H](C(C)C)NC(=O)[C@H](Cc2c[nH]c3ccccc23)NC(=O)[C@H](CC(=O)O)NC(=O)[C@H](Cc2ccc(O)cc2)NC(=O)[C@H](CC(N)=O)NC(=O)CSC[C@@H](C(=O)N[C@@H](C)C(N)=O)NC(=O)[C@H](CO)NC(=O)[C@H](C(C)C)NC1=O [Compound 1482] ({CH2CO}-NYDWV[Bip]H[NMeA][dL]KLVSCA-NH2; thioether N-14),0.11
13,CC(C)C[C@@H]1NC(=O)[C@H](Cc2c[nH]c3ccccc23)NC(=O)[C@H](CC(=O)O)NC(=O)[C@H](Cc2ccc(C(=O)O)cc2)NC(=O)[C@H](Cc2ccc(OCC(=O)O)cc2)NC(=O)CSC[C@@H](C(=O)N[C@@H](CCN)C(N)=O)NC(=O)[C@H](CO)NC(=O)[C@H](C(C)(C)O)NC(=O)[C@H](CC2CCCCC2)NC(=O)[C@H](CCN)NC(=O)[C@@H](CC(C)C)NC(=O)[C@H](C)N(C)C(=O)[C@H](C(C)(C)O)NC(=O)[C@H](Cc2ccc(-c3ccccc3)cc2)NC1=O [Compound 1716] ({CH2CO}-Y(Carboxymethyl)[Phe(4-COOH)]DWL[Bip][Val(3-OH)][NMeA][dL][Dab][Cha][Val(3-OH)]SC[Dab]-NH2; thioether N-14),0.01
14,CC(C)C[C@@H]1NC(=O)[C@H](CCN)NC(=O)[C@@H](CC(C)C)NC(=O)[C@H](C)N(C)C(=O)[C@H](CCCNC(=N)N)NC(=O)[C@H](Cc2ccc(-c3ccccc3)cc2)NC(=O)[C@H](C(C)C)NC(=O)[C@H](Cc2c[nH]c3ccccc23)NC(=O)[C@H](CC(=O)O)NC(=O)[C@H](CCc2ccccc2)NC(=O)[C@H](CC(N)=O)NC(=O)CSC[C@@H](C(=O)N[C@@H](C)C(N)=O)NC(=O)[C@H]([C@@H](C)O)NC(=O)[C@H](C(C)C)NC1=O [Compound 1353] ({CH2CO}-N[hPhe]DWV[Bip]R[NMeA][dL][Dab]LVTCA-NH2; thioether N-14),0.03
15,CCC(C)[C@@H]1NC(=O)[C@H](Cc2ccc(-c3ccccc3)cc2)NC(=O)[C@H](C(C)C)NC(=O)[C@H](Cc2c[nH]c3ccccc23)NC(=O)[C@H](CC(=O)O)NC(=O)[C@H](Cc2ccc(O)cc2)NC(=O)[C@H](CC#N)NC(=O)CSCC(C(=O)NCC(=O)O)NC(=O)[C@H](C(C)O)NC(=O)[C@H](C(C)C)NC(=O)[C@H](CC2CCCCC2)NC(=O)[C@H](CCN)NC(=O)[C@@H](CC(C)C)NC(=O)[C@H](C)N(C)C1=O (stereo partly drawn) [Compound 2218] ({CH2CO}-[Ala(CN)]YDWV[Bip][Ile(3ξ)][NMeA][dL][Dab][Cha]V[Thr(3ξ)][ξC]G-OH; thioether N-14),0.01
